These results are taken from US9957173B2, “Treatment of water” (BWA WATER ADDITIVES UK LIMITED, priority 2015, dated 2018).

Experiment [1] relates to Enterobacter aerogenes. The experiment can be described thus: Log10 reduction in viable count of facultative anaerobes after treatment of inoculated high-TDS aqueous system. The class given is cell-based. To be noted: for Log10 Reduction Facultative Anaerobes: TDS 30,000 mg l^−1, 8 = complete kill. As for the experimental part:
(§1) Aqueous systems inoculated with anaerobe and facultative anaerobe culture and having a total dissolved solids (TDS) concentration of 30,000 mg l^−1 were prepared and treated with treatment agents comprising: (a) a phosphonium compound and (b) a nitro compound. The phosphonium compound (a) used was tri n-butyl n-tetradecyl phosphonium chloride (TTPC). The nitro compound (b) used was 2-hydroxymethyl-2-nitro-1,3-propanediol (THNM).
(§2) A suspension of Desulfovibrio vulgaris plus Enterobacter aerogenes bacteria containing from 1×10^5 to 1×10^6 cells/mL was prepared in sterile pH 8 phosphate buffer containing sodium chloride to give the desired total dissolved solids (TDS) concentration. Aliquots of this suspension were dosed with the indicated concentrations of the compounds (a) and (b) with the concentrations being measured as ppm. The mixtures were allowed to stand at room temperature. At the designated contact times, each mixture was sampled to determine the total number of viable cells of both Desulfovibrio vulgaris and Enterobacter aerogenes by serial 10-fold dilution into API RP 38 media vials and anaerobic acid producing media vials, respectively. The vials were incubated at 37° C. for 72 hours. Results were recorded as log10 reduction in the viable count versus the control.
(§3) The efficacy of the treatment agents was evaluated by measuring the Log10 Reduction of the anaerobic bacterium Desulfovibrio vulgaris and the facultative anaerobic bacterium Enterobacter aerogenes after contact times of 1 hour, 4 hours and 24 hours as detailed in Table 1. For TTPC the stated ppm value relates to the amount of TTPC added (active). For the THNM the stated ppm relates to the amount of THNM added (active).

The test system of experiment [2] is Desulfovibrio vulgaris. Description: Log10 reduction in viable count of anaerobes after treatment of inoculated high-TDS aqueous system. In kind it is cell-based. As to conditions: for Log10 Reduction Anaerobes: TDS 30,000 mg l^−1, 5 = complete kill. As to the method:
as §1, §2, §3

Where [3] appears, read: Example 3: THNM 75 ppm active alone, contact time 1 hour.
The mark [4] stands for this setting: Example 4: THNM 150 ppm active alone, contact time 1 hour.
[5] abbreviates: Example 11: THNM 75 ppm active alone, contact time 4 hours.
The mark [6] stands for this setting: Example 12: THNM 150 ppm active alone, contact time 4 hours.
[7] abbreviates: Example 19: THNM 75 ppm active alone, contact time 24 hours.
The mark [8] stands for this setting: Example 20: THNM 150 ppm active alone, contact time 24 hours.
The mark [9] stands for this setting: THNM alone, even at concentrations of 150 ppm.
Setting [10] is: Example 1: TTPC 3.125 ppm active alone, contact time 1 hour.
Setting [11] is: Example 2: TTPC 6.25 ppm active alone, contact time 1 hour.
[12] abbreviates: Example 9: TTPC 3.125 ppm active alone, contact time 4 hours.
[13] abbreviates: Example 10: TTPC 6.25 ppm active alone, contact time 4 hours.
Setting [14] is: Example 17: TTPC 3.125 ppm active alone, contact time 24 hours.
The mark [15] stands for this setting: Example 18: TTPC 6.25 ppm active alone, contact time 24 hours.

As to `O=[N+]([O-])C(CO)(CO)CO` [THNM, 2-hydroxymethyl-2-nitro-1,3-propanediol], the “Log10 Reduction Facultative Anaerobes” value in experiment [1] (setting [3]), in experiment [1] (setting [4]), in experiment [1] (setting [5]), in experiment [1] (setting [6]), in experiment [1] (setting [7]) and in experiment [1] (setting [8]) was 0 throughout. Further, the “effect on facultative anaerobes” value in experiment [1] (setting [9]) was “no affect”. The “Log10 Reduction Anaerobes” value in experiment [2] (setting [3]), in experiment [2] (setting [4]), in experiment [2] (setting [5]), in experiment [2] (setting [6]), in experiment [2] (setting [7]) and in experiment [2] (setting [8]) was 0 in each case. In experiment [2] (setting [9]), the effect on anaerobes entry is “no affect”.

As for `CCCCCCCCCCCCCC[P+](CCCC)(CCCC)CCCC.[Cl-]` [TTPC, tri n-butyl n-tetradecyl phosphonium chloride], the “Log10 Reduction Facultative Anaerobes” value in experiment [1] (setting [10]) is recorded as 1; in experiment [1] (setting [11]) it was 3; in experiment [1] (setting [12]), 2; in experiment [1] (setting [13]), 4; in experiment [1] (setting [14]), 3; in experiment [1] (setting [15]) it was 5. In addition, the “Log10 Reduction Anaerobes” value is listed as 0 in experiment [2] (setting [10]); 1 in experiment [2] (setting [11]); 5 in experiment [2] (setting [12]); 5 in experiment [2] (setting [13]); 5 in experiment [2] (setting [14]); 5 in experiment [2] (setting [15]).
